In PMC5374441 (Scientific Reports, 2017):
Where two headings read alike, the source gives them in different places. Bridge positions count the residues as written; N and C are the ends. Peptide text beside a SMILES is read from it.

Legend:
Assay in all cases: biochemical
Assay type in all cases: binding
[1] = target: T1, Ls-AChBP (Lymnaea stagnalis, UniProt P58154)
T1 construct: made in house

[2] = target: T2, Ac-AChBP (Aplysia californica, UniProt Q8WSF8); conditions: SEM
T2 construct: made in house

[3] = target: T3, Q55K Ls-AChBP mutant (Lymnaea stagnalis, UniProt P58154, Q74K)
T3 construct: made in house; Top10 E. coli is named only for plasmid propagation

| Structure (SMILES) | IC50 [1] | IC50 [2] | IC50 ([1]; SEM) | IC50 [3] | activity at Ls-AChBP (in words) [1] | IC50 ([3]; SEM) |
| --- | --- | --- | --- | --- | --- | --- |
| CC[C@H](C)[C@@H]1NC(=O)[C@H](CC(N)=O)NC(=O)[C@@H]2CCCN2C(=O)[C@H](CC(N)=O)NC(=O)[C@H](CC(=O)O)NC(=O)[C@H](C(C)C)NC(=O)[C@H](CCCNC(=N)N)NC(=O)[C@@H]2CSSC[C@H](NC(=O)CNC(=O)[C@@H](N)CO)C(=O)N[C@@H](CSSC[C@@H](C(N)=O)NC1=O)C(=O)N[C@@H](CO)C(=O)N[C@@H](CC(N)=O)C(=O)N1CCC[C@H]1C(=O)N[C@@H](C)C(=O)N2 [N12D-LsIA] (H-SGCCSNPACRVDNPNIC-NH2; disulfide 3-9, 4-17) | > 10000 nM | 5550 nM | – | – | – | – |
| CC[C@H](C)[C@@H]1NC(=O)[C@H](CC(N)=O)NC(=O)[C@@H]2CCCN2C(=O)[C@H](CC(N)=O)NC(=O)[C@H](CC(C)C)NC(=O)[C@H](C(C)C)NC(=O)[C@H](CCCNC(=N)N)NC(=O)[C@@H]2CSSC[C@H](NC(=O)CNC(=O)[C@@H](N)CO)C(=O)N[C@@H](CSSC[C@@H](C(N)=O)NC1=O)C(=O)N[C@@H](CO)C(=O)N[C@@H](CC(N)=O)C(=O)N1CCC[C@H]1C(=O)N[C@@H](C)C(=O)N2 [N12L-LsIA] (H-SGCCSNPACRVLNPNIC-NH2; disulfide 3-9, 4-17) | > 10000 nM | 61 ± 7 nM | – | – | – | – |
| CC[C@H](C)[C@@H]1NC(=O)[C@H](CC(N)=O)NC(=O)[C@@H]2CCCN2C(=O)[C@H](CC(N)=O)NC(=O)[C@H](CCC(N)=O)NC(=O)[C@H](C(C)C)NC(=O)[C@H](CCCNC(=N)N)NC(=O)[C@@H]2CSSC[C@H](NC(=O)CNC(=O)[C@@H](N)CO)C(=O)N[C@@H](CSSC[C@@H](C(N)=O)NC1=O)C(=O)N[C@@H](CO)C(=O)N[C@@H](CC(N)=O)C(=O)N1CCC[C@H]1C(=O)N[C@@H](C)C(=O)N2 [N12Q-LsIA] (H-SGCCSNPACRVQNPNIC-NH2; disulfide 3-9, 4-17) | – | 55.2 ± 0.9 nM | 2440 ± 750 nM | – | – | – |
| CC[C@H](C)[C@@H]1NC(=O)[C@H](CC(N)=O)NC(=O)[C@@H]2CCCN2C(=O)[C@H](CC(N)=O)NC(=O)[C@H](CC(N)=O)NC(=O)[C@H](C(C)C)NC(=O)[C@H](CC(=O)O)NC(=O)[C@@H]2CSSC[C@H](NC(=O)CNC(=O)[C@@H](N)CO)C(=O)N[C@@H](CSSC[C@@H](C(N)=O)NC1=O)C(=O)N[C@@H](CO)C(=O)N[C@@H](CC(N)=O)C(=O)N1CCC[C@H]1C(=O)N[C@@H](C)C(=O)N2 [R10D-LsIA] (H-SGCCSNPACDVNNPNIC-NH2; disulfide 3-9, 4-17) | > 10000 nM | 8370 nM | – | > 10000 nM | inactive | – |
| CC[C@H](C)[C@@H]1NC(=O)[C@H](CC(N)=O)NC(=O)[C@@H]2CCCN2C(=O)[C@H](CC(N)=O)NC(=O)[C@H](CC(N)=O)NC(=O)[C@H](C(C)C)NC(=O)[C@H](Cc2ccccc2)NC(=O)[C@@H]2CSSC[C@H](NC(=O)CNC(=O)[C@@H](N)CO)C(=O)N[C@@H](CSSC[C@@H](C(N)=O)NC1=O)C(=O)N[C@@H](CO)C(=O)N[C@@H](CC(N)=O)C(=O)N1CCC[C@H]1C(=O)N[C@@H](C)C(=O)N2 [R10F-LsIA] (H-SGCCSNPACFVNNPNIC-NH2; disulfide 3-9, 4-17) | – | 2.2 ± 0.05 nM | 110 ± 20 nM | – | – | 800 ± 260 nM |
| CC[C@H](C)[C@@H]1NC(=O)[C@H](CC(N)=O)NC(=O)[C@@H]2CCCN2C(=O)[C@H](CC(N)=O)NC(=O)[C@H](CC(N)=O)NC(=O)[C@H](C(C)C)NC(=O)[C@H](CCSC)NC(=O)[C@@H]2CSSC[C@H](NC(=O)CNC(=O)[C@@H](N)CO)C(=O)N[C@@H](CSSC[C@@H](C(N)=O)NC1=O)C(=O)N[C@@H](CO)C(=O)N[C@@H](CC(N)=O)C(=O)N1CCC[C@H]1C(=O)N[C@@H](C)C(=O)N2 [R10M-LsIA] (H-SGCCSNPACMVNNPNIC-NH2; disulfide 3-9, 4-17) | – | 1.88 ± 0.65 nM | 500 ± 160 nM | – | – | 7100 ± 2500 nM |
